Results as given in US9688743B2, “Optical biosensors” (Carnegie Mellon University, priority 2007, dated 2017).

Legend:
[1] = system: living NIH3T3 cells; assay: Entry of fluorogen controls into living cells; type: cell-based, mouse
[2] = comparison value; cited from earlier work
[3] = system: JAR200 cells; assay: Effect of fluorogens on yeast cell growth; type: cell-based; conditions: 500 nM fluorogen, 30° C.
Description: FIG. 17 is a graph depicting the effect of fluorogens on yeast cell growth. JAR200 cells are inoculated at ˜10^6 cells/ml into 35 ml SD+CAA medium in 125 ml baffled flasks and allowed to grow at 30° C. at 300 RPM for 2 hours prior to addition of fluorogens at the indicated concentrations. One ml samples are removed at indicated time points, and growth halted by addition of 75 μl of 300 mM NaN3 prior to reading absorbance. Doubling time of about 1.9 hrs is unchanged by most fluorogen treatments. For 500 nM MG-ester, the doubling time is about 2.8 hrs; and for 500 nM MG, the doubling time is over 24 hrs.

**Q.** For “2-[(1-(18-amino-4,9-diaza-12,15-dioxa-5,8-dioxo-octadecanyl)-4(111)-quinolinylidene)methyl-3-(3-sulfopropyl)benzothiazolinium]trifluoroacetate [TO1-2p]”, which “entry into living cells” value [1] is on record?
**A.** Its value is “did not enter living NIH3T3 cells”.

**Q.** For `O=C(O)c1ccccc1-c1c2ccc(=O)c([As]3SCCS3)c-2oc2c([As]3SCCS3)c(O)ccc12` [F1AsH-EDT2], which “fluorescence increase on binding cognate tetracysteine peptide” value [2] is on record?
**A.** Its value is 50,000 fold.

**Q.** Which doubling time [3] does the source give for `CCOC(=O)CCCc1ccc([C+](c2ccc(N(C)C)cc2)c2ccc(N(C)C)cc2)cc1.[Cl-]` [MG-ester, Methylium, bis[4-(dimethylamino)phenyl](4-(3-carboethoxypropyl)phenyl)-chloride] here?
**A.** Its doubling time is “about 2.8 hrs”.

**Q.** With `CN(C)c1ccc(C(=C2C=CC(=[N+](C)C)C=C2)c2ccccc2)cc1` [MG, malachite green, reference compound] as the compound, how does the doubling time [3] read?
**A.** The doubling time was “over 24 hrs”.
